Source: PMC4503722, “Novel Phenotypic Outcomes Identified for a Public Collection of Approved Drugs from a Publicly Accessible Panel of Assays” (PLoS ONE, 2015)

Experiments:
[1] = test system: ECFC/ADSC co-culture cell nuclei number
HCT116 = assay: cells; assay type: cell-based; details: assay number 25, basal
SNU-C1 = assay: cells; assay type: cell-based; details: assay number 30
[2] = test system: HCT116 cells treated with a GSK3β inhibitor; assay: cells; assay type: cell-based; details: assay number 26, GSK3b inhibitor pretreated
[3] = test system: endothelial tube formation in co-cultures of ECFCs and ADSCs treated with VEGF; assay: cells; assay type: cell-based, human
SW480 = assay: cells; assay type: cell-based; details: assay number 24
DLD-1 = assay: cells; assay type: cell-based; details: assay number 23
RKO = assay: cells; assay type: cell-based; details: assay number 29
HT-29 = assay: cells; assay type: cell-based; details: assay number 28
Colo320 = assay: cells; assay type: cell-based; details: assay number 27

Structure (SMILES)	VEGF_ADSC\ECFC Angio Hoechst NucArea IC50/EC50 [1]	Basal_Viability ATP HCT116 IC50/EC50 (HCT116)	Basal_Viability ATP SNU-C1 IC50/EC50 (SNU-C1; basal)	GSK3b inh pretreated_Viability ATP HCT116 IC50/EC50 [2]	VEGF_ADSC\ECFC Angio CD31 TubeArea IC50/EC50 [3]	Basal_Viability ATP SW480 IC50/EC50 (SW480; basal)	Basal_Viability ATP DLD-1 IC50/EC50 (DLD-1; basal)	Basal_Viability ATP RKO IC50/EC50 (RKO; basal)	Basal_Viability ATP HT-29 IC50/EC50 (HT-29; basal)	Basal_Viability ATP Colo 320 IC50/EC50 (Colo320; basal)	Basal_Viability ATP HCT116 IC50/EC50 (HCT116; concentration response)	Basal_Viability ATP SNU-C1 IC50/EC50 (SNU-C1; concentration response)	GSK3b inh pretreated_Viability ATP HCT116 IC50/EC50 ([2]; concentration response)	Basal_Viability ATP SW480 IC50/EC50 (SW480; concentration response)	Basal_Viability ATP DLD-1 IC50/EC50 (DLD-1; concentration response)	Basal_Viability ATP RKO IC50/EC50 (RKO; concentration response)	Basal_Viability ATP HT-29 IC50/EC50 (HT-29; concentration response)	Basal_Viability ATP Colo 320 IC50/EC50 (Colo320; concentration response)	further results
CN1CCN(C2Cc3ccccc3Sc3ccc(Cl)cc32)CC1.O=C(O)/C=C\C(=O)O (stereo not shown) [NCGC00015759-05]	> 10 µM	9.1662 µM	7.8734 µM	8.3951 µM	5.2302 µM	6.3146 µM	> 20 µM	> 20 µM	8.001 µM	> 6.6667 µM									
CCOC(=O)c1ccccc1C(=O)OCC [NCGC00090974-06]	> 10 µM	> 20 µM	> 20 µM	> 20 µM	> 10 µM	> 20 µM	> 20 µM	> 20 µM	> 20 µM	> 20 µM									
O=C([O-])CCC(=O)OC[C@@H](NC(=O)C(Cl)Cl)[C@H](O)c1ccc([N+](=O)[O-])cc1.[Na+] [NCGC00094619-06]	> 10 µM				> 10 µM						> 20 µM	> 20 µM	> 20 µM	> 20 µM	> 20 µM	> 20 µM	> 20 µM	> 20 µM	
CCCCCCCCCCCCCCCCCCOP(=O)([O-])OC1CC[N+](C)(C)CC1 [NCGC00187909-02]	> 10 µM				> 10 µM						3.1704 µM	> 20 µM	5.7889 µM	0.8519 µM	> 20 µM	2.0992 µM	6.9016 µM	2.358 µM	
CC(C)=CCC/C(C)=C/CC/C(C)=C/CC/C=C(\C)CC/C=C(\C)CCC=C(C)C [NCGC00181323-02]																			IC50 ([1]; read-out: VEGF_ADSC\ECFC Angio Hoechst NucArea summarized IC50): > 10 µM; IC50 (HCT116; read-out: Basal_Viability ATP HCT116 summarized IC50): > 20 µM; IC50 (SNU-C1; basal, read-out: Basal_Viability ATP SNU-C1 summarized IC50): > 20 µM; IC50 ([2]; read-out: GSK3b inh pretreated_Viability ATP HCT116 summarized IC50): > 20 µM; IC50 ([3]; read-out: VEGF_ADSC\ECFC Angio CD31 TubeArea summarized IC50): > 10 µM; IC50 (SW480; basal, read-out: Basal_Viability ATP SW480 summarized IC50): > 20 µM; IC50 (DLD-1; basal, read-out: Basal_Viability ATP DLD-1 summarized IC50): > 20 µM; IC50 (RKO; basal, read-out: Basal_Viability ATP RKO summarized IC50): > 20 µM; IC50 (HT-29; basal, read-out: Basal_Viability ATP HT-29 summarized IC50): > 20 µM; IC50 (Colo320; basal, read-out: Basal_Viability ATP Colo 320 summarized IC50): > 20 µM
O=[N+]([O-])c1cccc(S(=O)(=O)NCCNS(=O)(=O)c2cccc([N+](=O)[O-])c2)c1 [NCGC00160679-02]	> 10 µM	> 20 µM	> 20 µM	> 20 µM	> 10 µM	> 20 µM	> 20 µM	> 20 µM	> 20 µM	> 20 µM									
CC=CC1C(C(=O)OCc2c(F)c(F)c(COC)c(F)c2F)C1(C)C (stereo not shown) [NCGC00319021-01]	> 10 µM				> 10 µM						> 20 µM	> 20 µM	> 20 µM	> 20 µM	> 20 µM	> 20 µM	> 20 µM	> 20 µM	
